Drawing on patent US9295671B2, “Benzenesulfonamide derivatives of quinoxaline, pharmaceutical compositions thereof, and their use in methods for treating cancer” (NEUPHARMA, INC., priority 2011, dated 2016), this text covers IC50 for 18 compounds.

For one assay, the target named is T1, BRAF (Homo sapiens, UniProt P15056).
T1 construct: purchased Invitrogen
The assay can be described thus: LanthaScreen kinase assay, BRAF. The assay is classed as biochemical. The conditions noted are these: ATP 1 μM. The protocol:
(§1) The inhibitory activities of compounds against BRAF or BRAF V600E protein were measured using Invitrogne's LanthaScreen™ kinase assay which is based on fluorescein-labeled MAP2K1 as a substrate. The assay procedure is described as follows.
(§2) The scale utilized in Table 3 is as follows: ++++ less than 50 nM; +++ between 50 and 100 nM; ++ between 100 nM and 1 μM; and + greater than 1 μM.

The target of a further assay is T2, BRAF V600E (Homo sapiens, UniProt P15056, V600E).
T2 construct: purchased Invitrogen
T2 sequence (P15056 whole entry V600E): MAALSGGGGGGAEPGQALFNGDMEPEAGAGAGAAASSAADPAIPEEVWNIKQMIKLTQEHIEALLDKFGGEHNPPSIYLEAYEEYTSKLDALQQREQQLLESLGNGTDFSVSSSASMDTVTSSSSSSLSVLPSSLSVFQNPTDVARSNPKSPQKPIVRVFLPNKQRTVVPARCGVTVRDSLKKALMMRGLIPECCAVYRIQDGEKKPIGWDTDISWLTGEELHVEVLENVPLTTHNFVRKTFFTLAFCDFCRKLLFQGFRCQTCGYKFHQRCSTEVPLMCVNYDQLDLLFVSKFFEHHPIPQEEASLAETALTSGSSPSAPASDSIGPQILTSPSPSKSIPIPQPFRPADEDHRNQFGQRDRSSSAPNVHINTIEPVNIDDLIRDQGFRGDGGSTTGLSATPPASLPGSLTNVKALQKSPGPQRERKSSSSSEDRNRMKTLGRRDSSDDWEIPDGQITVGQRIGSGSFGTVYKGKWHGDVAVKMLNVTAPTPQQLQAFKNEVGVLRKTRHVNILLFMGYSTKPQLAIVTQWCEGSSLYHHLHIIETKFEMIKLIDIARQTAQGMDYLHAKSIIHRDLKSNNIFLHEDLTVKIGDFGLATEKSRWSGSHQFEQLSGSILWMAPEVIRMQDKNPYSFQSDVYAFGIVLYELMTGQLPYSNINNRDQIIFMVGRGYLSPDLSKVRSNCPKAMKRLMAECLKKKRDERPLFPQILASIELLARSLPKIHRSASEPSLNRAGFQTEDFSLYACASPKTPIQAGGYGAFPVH
The assay can be described thus: LanthaScreen kinase assay, BRAF V600E. The conditions noted are these: ATP 10 μM. The assay is classed as biochemical. As to the method: as §1, §2
A general note: In TR-FRET formats the signal depends on donor and acceptor labels being close together.

The test system of assay [1] is A375 (human melanoma cell, BRAF V600E Mutant). Nature of the assay: Inhibition of cancer cell growth, MTT or MTS assay, A375. The assay is classed as cell-based. Particulars: A-375, 72 h, highest concentration 10 μM (Table 5). As to the method: A375 (human melanoma cell, BRAF V600E Mutant), CHL-1 (human melanoma cell, BRAF wild type), SK-MEL-28 (human melanoma cell, BRAF V600E Mutant) and SK-MEL-31(human melanoma cell, Braf WT Mutant) were purchased from ATCC (American Type Culture Collection, Manassas, Va.). All cell lines were maintained in RPMI 1640 (Hyclone) or DMEM (Hyclone) supplemented with 10% fetal bovine serum (FBS, Hyclone), glutamine (2 mM, Hyclone), and antibiotics (penicillin 100 U/mL and streptomycin 50 μg/mL) at 37° C. in a humidified atmosphere of 5% CO2 in air.
To test IC50 of inhibition of individual compounds against each cell line, A375, SK-MEL-28and SK-MEL-31 cells were first plated in 96-well plates at densities of 3000 cells/well, and CHL-1 2500 cells/well. Cells were then incubated to allow cells to adhere and grow for 24 h. Cells were then treated with a series of concentrations of compounds for 72 h. The highest concentration of compounds was 10 μM for A375 and SK-MEL-28 cells and 100 μM for CHL-1 and SK-MEL-31 cells. Cells were then removed from the incubator and medium was removed by inverting and tapping the plates. 100 μL of MTT (0.5 mg/ml) or 10 μL or MTS was added to each well followed by an incubated at 37° C. for 4 h. Then MTT was removed and 200 μL of DMSO was added to each well, followed by reading the ODs at 570 nm after a 5 second shaking cycle in a 96-well spectrophotometer. For MTS method, MTS was not removed, and the incubated solutions were directly put in a 96-well spectrophotometer for the reading of the ODs at 492 nm.
IC50 was calculated by plotting the concentration of compound vs the percentage of inhibition in treated wells using GraphPad Prism 5. […] The scale utilized in Table 5 is as follows: +++ less than 500 nM; ++ between 500 nM and 1 μM; and + greater than 1 μM.

T1 sequence (P15056 whole entry): as the sequence (P15056 whole entry V600E) above, with E600V counted along it

The IC50 is the point on the concentration scale where inhibition reaches its midpoint. Read a low IC50 as greater potency in that assay. Take `CCCS(=O)(=O)Nc1cc(F)c(F)c(C(=O)c2ccc3ncc(C)nc3c2)c1F` [Compound C19, N-(2,4,5-trifluoro-3-(3-methylquinoxaline-6-carbonyl)phenyl)propane-1-sulfonamide]: the IC50 at BRAF is 100 to 1000 nM; against BRAF V600E, 100 to 1000 nM; in assay [1], over 1000 nM.

As for `CCCS(=O)(=O)Nc1cc(F)c(F)c(C(=O)c2ccc3ncc(-n4ccnc4C)nc3c2)c1F` [Compound C20, N-(2,4,5-trifluoro-3-(3-(2-methyl-1H-imidazol-1-yl)quinoxaline-6-carbonyl)phenyl)propane-1-sulfonamide], the IC50 against BRAF is 50 to 100 nM; at BRAF V600E it was under 50 nM; in assay [1], under 500 nM.

Take `CCCS(=O)(=O)Nc1cc(F)c(F)c(C(=O)c2ccc3ncc(-n4cnc(C)c4)nc3c2)c1F` [Compound C21, N-(2,4,5-trifluoro-3-(3-(4-methyl-1H-imidazol-1-yl)quinoxaline-6-carbonyl)phenyl)propane-1-sulfonamide]: the values for the IC50 (against BRAF; at BRAF V600E; in assay [1]) were under 50 nM, under 50 nM and under 500 nM, respectively.

As to `CCCS(=O)(=O)Nc1cc(F)c(F)c(C(=O)c2ccc3ncc(OCCOC)nc3c2)c1F` [Compound C22, N-(2,4,5-trifluoro-3-(3-(2-methoxyethoxy)quinoxaline-6-carbonyl)phenyl)propane-1-sulfonamide], the IC50 was 50 to 100 nM against BRAF, 50 to 100 nM against BRAF V600E and under 500 nM in assay [1].

Turning to `CCCS(=O)(=O)Nc1cc(F)c(F)c(C(=O)c2ccc3ncc(-n4ccnc4)nc3c2)c1F` [Compound C23, N-(3-(3-(1H-imidazol-1-yl)quinoxaline-6-carbonyl)-2,4,5-trifluorophenyl)propane-1-sulfonamide], the figures for the IC50 (at BRAF; at BRAF V600E; in assay [1]) were under 50 nM, under 50 nM and under 500 nM, respectively.

With `CCCS(=O)(=O)Nc1cc(F)c(F)c(C(=O)c2ccc3ncc(N4CCNCC4)nc3c2)c1F` [Compound C24, N-(2,4,5-trifluoro-3-(3-(piperazin-1-yl)quinoxaline-6-carbonyl)phenyl)propane-1-sulfonamide], the IC50 on BRAF is under 50 nM; against BRAF V600E, under 50 nM; in assay [1], under 500 nM.

Consider `CCCS(=O)(=O)Nc1cc(F)c(F)c(C(=O)c2ccc3ncc(-c4ccccc4)nc3c2)c1F` [Compound C26, N-(2,4,5-trifluoro-3-(3-phenylquinoxaline-6-carbonyl)phenyl)propane-1-sulfonamide], for which the IC50 against BRAF is 100 to 1000 nM; against BRAF V600E, under 50 nM; in assay [1], 500 to 1000 nM.

Take `CCCS(=O)(=O)Nc1cc(F)c(F)c(C(=O)c2ccc3ncc(-c4cn[nH]c4)nc3c2)c1F` [Compound C27, N-(3-(3-(1H-pyrazol-4-yl)quinoxaline-6-carbonyl)-2,4,5-trifluorophenyl)propane-1-sulfonamide]: the IC50 against BRAF was under 50 nM; at BRAF V600E it was under 50 nM; in assay [1], under 500 nM.

As to `CCCS(=O)(=O)Nc1cc(F)c(F)c(C(=O)c2ccc3ncc(-c4ccc(F)cc4)nc3c2)c1F` [Compound C28, N-(2,4,5-trifluoro-3-(3-(4-fluorophenyl)quinoxaline-6-carbonyl)phenyl)propane-1-sulfonamide], the IC50 against BRAF lay within 100 to 1000 nM; on BRAF V600E it was 50 to 100 nM; in assay [1], 500 to 1000 nM.

As to `O=C(c1ccc2ncc(N3CCOCC3)nc2c1)c1c(F)c(F)cc(NS(=O)(=O)C2CC2)c1F` [Compound C29, N-(2,4,5-trifluoro-3-(3-morpholinoquinoxaline-6-carbonyl)phenyl)cyclopropanesulfonamide], the IC50 on BRAF is 100 to 1000 nM; against BRAF V600E, 100 to 1000 nM; in assay [1], under 500 nM.

`CCCS(=O)(=O)Nc1cc(F)c(F)c(C(=O)c2ccc3ncc(-c4cccnc4)nc3c2)c1F` [Compound C30, N-(2,4,5-trifluoro-3-(3-(pyridin-3-yl)quinoxaline-6-carbonyl)phenyl)propane-1-sulfonamide]: the results for the IC50 (against BRAF; at BRAF V600E; in assay [1]) were under 50 nM, under 50 nM and under 500 nM, respectively.

Take `CCCS(=O)(=O)Nc1cc(F)c(F)c(C(=O)c2ccc3ncc(-c4ccncc4)nc3c2)c1F` [Compound C33, N-(2,4,5-trifluoro-3-(3-(pyridin-4-yl)quinoxaline-6-carbonyl)phenyl)propane-1-sulfonamide]: the half-maximal inhibitory concentration (IC50) was under 50 nM against BRAF, under 50 nM against BRAF V600E and under 500 nM in assay [1].

As for `CCCS(=O)(=O)Nc1cc(F)c(F)c(C(=O)c2ccc3ncc(-c4ccc(C)nc4)nc3c2)c1F` [Compound C34, N-(2,4,5-trifluoro-3-(3-(6-methylpyridin-3-yl)quinoxaline-6-carbonyl)phenyl)propane-1-sulfonamide], the IC50 at BRAF is under 50 nM; against BRAF V600E, under 50 nM; in assay [1], under 500 nM.

For the compound `CCCS(=O)(=O)Nc1cc(F)c(F)c(C(=O)c2ccc3ncc(F)nc3c2)c1F` [Compound C35, N-(2,4,5-trifluoro-3-(3-fluoroquinoxaline-6-carbonyl)phenyl)propane-1-sulfonamide], the values for the IC50 (on BRAF; at BRAF V600E; in assay [1]) were 50 to 100 nM, under 50 nM and over 1000 nM, respectively.

Take `CCCS(=O)(=O)Nc1cc(F)c(F)c(C(=O)c2ccc3ncc(C#N)nc3c2)c1F` [Compound C36, N-(3-(3-cyanoquinoxaline-6-carbonyl)-2,4,5-trifluorophenyl)propane-1-sulfonamide]: the IC50 at BRAF was 50 to 100 nM; against BRAF V600E it was under 50 nM; in assay [1], 500 to 1000 nM.

Turning to `CCCS(=O)(=O)Nc1ccc(F)c(C(=O)c2ccc3ncc(N4CCOCC4)nc3c2)c1F` [Compound C38, N-(2,4-difluoro-3-(3-morpholinoquinoxaline-6-carbonyl)phenyl)propane-1-sulfonamide], the IC50 was 100 to 1000 nM against BRAF, 100 to 1000 nM at BRAF V600E and under 500 nM in assay [1].

For the compound `CCCS(=O)(=O)Nc1cc(F)c(F)c(C(=O)c2ccc3ncc(-n4cncc4C)nc3c2)c1F` [Compound C40, N-(2,4,5-trifluoro-3-(3-(5-methyl-1H-imidazol-1-yl)quinoxaline-6-carbonyl)phenyl)propane-1-sulfonamide], the IC50 against BRAF is 50 to 100 nM; at BRAF V600E, under 50 nM; in assay [1], under 500 nM.

In the case of `CCCS(=O)(=O)Nc1ccc(F)c(C(=O)c2ccc3ncc(N4CCOCC4)nc3c2)c1Cl` [Compound C41, N-(2-chloro-4-fluoro-3-(3-morpholinoquinoxaline-6-carbonyl)phenyl)propane-1-sulfonamide], the IC50 against BRAF and at BRAF V600E was over 1000 nM each time.
